Laboratory results from patent US20240228536A1, “PEPTIDES FOR USE IN SKIN AND HAIR PIGMENTATION” (Follicum AB, priority 2020, published 2024).

How the values were obtained:
Format in all cases: cell-based, human
skin equivalents = test: Total melanin assay
Protocol: The skin equivalents used in this study was from the same donors as in Example 2. The determination of the total melanin content of the skin equivalent was determined using a total melanin assay.
The total melanin content of the SE was calculated by dissolving the SE in Soluene and reading the absorbance against a standard curve. The SEs were removed from culture on day 20 and washed with PBS. They were then transferred to a glass centrifuge tube and 500 μl Soluene added. The tubes were then covered with […]®, gently vortexed and placed on the Thermomixer at 50° C. for 1 hour. The tubes were then gently vortexed and 150 μl of the sample and synthetic melanin standards pipetted in triplicate into a glass 96 well plate. The absorbance was then measured at 490 nm on a Spectrophotometer. Results are presented in μg/ml against a standard curve. The change of melanin content is expressed as a percentage change versus vehicle control samples. An ANOVA (with Dunnett's post-test) was used for the statistical analysis.
Three experiments were conducted, and the same donors were used as in Example 2. The sample sizes were as follows: experiment 1 n=2, experiment 2 n=4 and experiment 3 n=7. Peptides 1 (SEQ ID NO: 2), 3 (SEQ ID NO: 3) and 4 (SEQ ID NO: 4) were tested.

[1] = test system: Melanoderms Mel-300-A (donor); test: Skin equivalent culture, peptides in formulation, photographic assessment of pigmentation; details: 7 days; for pigmentation of SEs (visual assessment), response by concentration: 0.4%, 1% and 2% in formulation B, relative to vehicle controls; for pigmentation of SEs (visual assessment): in formulation B, 25 μl topical, vs formulation B only and peptide dissolved in water (10 mg/ml)
Protocol: Pigmented skin equivalents (SEs), Melanoderms Mel-300-A (donor) were obtained from Mattek Ltd together with the associated media […]-113 and hanging well plates. The skin equivalent surface area was 63.6 mm^2. Other equipment used included SMZ1000 Stereo 10 Microscope (Nikon); UC30 Microscope Camera (Olympus); Sterile Phosphate-Buffered Saline (PBS, Thermofisher, UK); 12-well Tissue Culture Plates (Sarstedt). All incubations were carried out in a humidified incubator maintained at 37° C. with 5% CO2. Pure peptide (>99%) was obtained from Biomatik, USA as acetate salt. The Melanoderms were prepared by carefully removing the agarose with sterile forceps and placing in 5 ml pre-warmed culture medium in hanging plates and incubated overnight. […] The tissue surface was photographed using an Olympus camera system attached to an inverted microscope to record initial pigmentation levels. SEs were transferred back to hanging well plates containing 5 ml fresh media. Three SEs were removed to provide baseline day 0 controls for analysis using WS staining and qPCR analysis. SEs (n=3 per treatment) were topically treated for 7 days with 25 μl of the various peptide concentrations in formulations as prepared in Example 12 in parallel with relevant controls. […] Each formulation was applied to the surface of SEs using a positive displacement pipette and spread evenly using a sterile microbiological loop. SEs were maintained at 37° C., 5% CO2 in a humidified incubator with media refreshed every other day until the end of treatment. On day 7 SEs were removed from culture and formulation carefully removed using a sterile microbiological loop and the surface rinsed in PBS then blotted dry with a sterile cotton bud. […] The pigmentation of the Melanoderms was macroscopically assessed by capturing high-resolution images using the Olympus microscope camera.

Melanoderm SEs = test: Warthin-Starry silver staining of melanin granules in Melanoderms; details: in formulation B at all three concentrations (0.4%, 1%, 2%), 7 days, compared to formulation only
Protocol: Tissue from each Melanoderm of Example 13 was carefully cut from inserts using a sterile scalpel blade (no. 11) and cut in half. One half was submerged overnight at −20° C. in RNAlater solution (Qiagen, UK) for RNA stabilization. The following day excess RNAlater solution was removed, and samples stored at −80° C. until RNA extracted for qPCR. The second half of each tissue was fixed overnight in 10% neutral buffered formalin then processed for wax embedding, sectioning, and Warthin-Starry staining.
All reagents used were of research grade quality and obtained from Sigma, UK. For silver staining high purity photo-grade (>99%) Silver nitrate was used. All reagents were prepared in acidulated (citrulated) distilled water (approx. 1 ml/L of 1% Citric acid was added to distilled water to change the pH to 3.4). Other equipment used were two water baths pre-set at 43° C. and 54° C., plastic staining tubs and slide racks for incubating slides, magnetic stirrers, and calibrated pH meter.
Melanin in tissue sections was stained using the modified Warthin-Starry staining method (Warthin, A. et al., Am. J. Syph. (1920) 4:97-103; Warkel, R. et al., Am. J. Clin. Path. (1980) 73 June (6): 812-5.). Briefly, 7 μm tissue sections were cut from wax blocks and floated onto charged slides (Leica Xtra clipped corner glass slides). […]

[2] = experiments 1 and 3, 10 mg/ml topical, day 20

Row | Substance | total melanin content of skin equivalents vs vehicle control (skin equivalents; experiment 2, 10 mg/ml topical, day 20, n=4) | total melanin content of skin equivalents vs vehicle control (skin equivalents; [2]) | pigmentation of SEs (visual assessment), response by concentration [1] | pigmentation of SEs (visual assessment) [1] | melanin in epidermal layers (Warthin-Starry) (Melanoderm SEs)
1 | Asn-Ala-Ala-Met (NAAM; (1)..(4) Peptide 4) | significant increase in melanin content | increase in melanin content | approximately equal increase in pigmentation relative to vehicle controls | more pigmented than the vehicle control | greater increase in melanin in all layers of the epidermis
2 | Asn-Ala-His-Met (NAHM; (1)..(4) Peptide 1) |  | increase in melanin content | highest response at the higher 1% and 2% concentrations | more pigmented than the vehicle control | modest increase in melanin in the basal and stratum spinosum layers
